From US6737383B1, “Herbicidal oxadiazolidines” (priority 1999, dated 2004)

Assays:
[1] = system: bedstraw; assay: Test B pre/postemergence bedstraw; format: in vivo, Galium aparine
In short: (§1)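 Herbicidal effect was estimated by eye on a ten-point control scale after plants spent twelve to sixteen days in a greenhouse following soil or foliar treatment. Foliar sprays targeted plants at one to four leaves; all doses were formulated in a non-phytotoxic solvent with surfactant.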

[2] = system: blackgrass; assay: Test B pre/postemergence blackgrass; format: in vivo, Alopecurus myosuroides
In short: as §1

[3] = system: surinam grass; assay: Test B pre/postemergence surinam grass; format: in vivo, Brachiaria decumbens
In short: as §1

[4] = system: corn; assay: Test B pre/postemergence corn; format: in vivo, Zea mays
In short: as §1

[5] = system: crabgrass; assay: Test B pre/postemergence crabgrass; format: in vivo, Digitaria sanguinalis
In short: as §1

[6] = system: giant foxtail; assay: Test B pre/postemergence giant foxtail; format: in vivo, Setaria faberii
In short: as §1

[7] = system: rape; assay: Test B pre/postemergence rape; format: in vivo, Brassica napus
In short: as §1

[8] = system: sugar beet; assay: Test B pre/postemergence sugar beet; format: in vivo, Beta vulgaris
In short: as §1

[9] = system: velvetleaf; assay: Test B pre/postemergence velvetleaf; format: in vivo, Abutilon theophrasti
In short: as §1

[10] = system: wheat; assay: Test B pre/postemergence wheat; format: in vivo, Triticum aestivum
In short: as §1

[11] = system: wild oat; assay: Test B pre/postemergence wild oat; format: in vivo, Avena fatua
In short: as §1

[12] = system: purple nutsedge; assay: Test B pre/postemergence purple nutsedge; format: in vivo, Cyperus rotundus
In short: as §1

[13] = system: rice; assay: Test B flood test rice; format: in vivo, Oryza sativa
In short: (§2)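 Flood test on plants grown to the 2-leaf stage; treated plants kept in greenhouse twelve to sixteen days, then visually rated against controls on a 0 (no effect) to 10 (complete control) scale.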

[14] = system: smallflower flatsedge; assay: Test B flood test smallflower flatsedge; format: in vivo, Cyperus difformis
In short: as §2

[15] = system: duck salad; assay: Test B flood test duck salad; format: in vivo, Heteranthera limosa
In short: as §2

[16] = system: bamyardgrass; assay: Test B flood test barnyardgrass; format: in vivo, Echinochloa crus-galli
In short: as §2

[17] = Postemergence, Rate 125 g/ha, scale of 0 to 10 where 0 is no effect and 10 is complete control
[18] = Preemergence, Rate 62 g/ha, scale 0 to 10 (0 no effect, 10 complete control)
[19] = Preemergence, Rate 125 g/ha, 0 is no effect, 10 is complete control
[20] = Preemergence, Rate 250 g/ha, scale 0 to 10, 0 is no effect, 10 is complete control
[21] = Preemergence, Rate 500 g/ha, scale 0 to 10 (0 no effect, 10 complete control)
[22] = Rate 62 g/ha, Postemergence, scale of 0 to 10 where 0 is no effect and 10 is complete control
[23] = Rate 250 g/ha, Postemergence, scale 0 to 10, 0 is no effect, 10 is complete control
[24] = Rate 500 g/ha, Postemergence, scale 0 to 10
[25] = Postemergence (flood test species), Rate 125 g/ha, scale of 0 to 10 where 0 is no effect and 10 is complete control
[26] = Rate 62 g/ha, Postemergence section, flood test species, scale of 0 to 10 where 0 is no effect and 10 is complete control
[27] = Rate 250 g/ha, Postemergence (flood test), scale 0 to 10, 0 is no effect, 10 is complete control
[28] = Rate 500 g/ha, listed under Postemergence (flood test species), scale 0 to 10

Which results are given for `CC(C)N(C(=O)n1oc(=O)n(Cc2ccccc2Cl)c1=O)C1=CCCCC1` [Compound 145]?
Bedstraw plant response rating [1, 17]: 2; Bedstraw plant response rating [1, 18]: 0; Bedstraw plant response rating (0 to 10 scale) [1, 19]: 0; Bedstraw plant response rating [1, 20]: 0; Bedstraw plant response rating [1, 21]: 4; Bedstraw plant response rating [1, 22]: 0; Plant response rating, Bedstraw [1, 23]: 3; Bedstraw plant response rating ([1]; Rate 500 g/ha, Postemergence, scale 0 to 10, 0 no effect, 10 complete control): 5; Blackgrass plant response rating [2, 17]: 1; Blackgrass plant response rating [2, 18]: 0; Blackgrass plant response rating (0 to 10 scale) [2, 19]: 1; Blackgrass plant response rating [2, 20]: 4; Blackgrass plant response rating [2, 21]: 7; Blackgrass plant response rating [2, 22]: 0; Plant response rating, Blackgrass [2, 23]: 5; Blackgrass plant response rating [2, 24]: 6; B. signalgrass plant response rating [3, 17]: 0; B. signalgrass plant response rating [3, 18]: 0; B. signalgrass plant response rating (0 to 10 scale) [3, 19]: 0; B. signalgrass plant response rating [3, 20]: 3; B. signalgrass plant response rating [3, 21]: 5; B. signalgrass plant response rating [3, 22]: 0; Plant response rating, B. signalgrass [3, 23]: 0; B. signalgrass plant response rating ([3]; Rate 500 g/ha, Postemergence, scale of 0 to 10 where 0 is no effect and 10 is complete control): 2; Corn plant response rating [4, 17]: 0; Corn plant response rating [4, 18]: 0; Corn plant response rating (0 to 10 scale) [4, 19]: 0; Corn plant response rating [4, 20]: 0; Corn plant response rating [4, 21]: 0; Corn plant response rating [4, 22]: 0; Plant response rating, Corn [4, 23]: 0; Corn plant response rating [4, 24]: 0; Crabgrass plant response rating [5, 17]: 3; Crabgrass plant response rating [5, 18]: 0; Crabgrass plant response rating (0 to 10 scale) [5, 19]: 4; Crabgrass plant response rating [5, 20]: 4; Crabgrass plant response rating [5, 21]: 8; Crabgrass plant response rating [5, 22]: 2; Plant response rating, Crabgrass [5, 23]: 8; Crabgrass plant response rating [5, 24]: 8; Giant foxtail plant response rating [6, 17]: 0; Giant foxtail plant response rating [6, 18]: 0; Giant foxtail plant response rating (0 to 10 scale) [6, 19]: 3; Giant foxtail plant response rating [6, 20]: 5; Giant foxtail plant response rating [6, 21]: 8; Giant foxtail plant response rating [6, 22]: 0; Plant response rating, Giant foxtail [6, 23]: 2; Giant foxtail plant response rating [6, 24]: 4; Rape plant response rating [7, 17]: 2; Rape plant response rating [7, 18]: 0; Rape plant response rating (0 to 10 scale) [7, 19]: 0; Rape plant response rating [7, 20]: 0; Rape plant response rating [7, 21]: 0; Rape plant response rating [7, 22]: 0; Plant response rating, Rape [7, 23]: 3; Rape plant response rating [7, 24]: 3; Sugarbeets plant response rating [8, 17]: 0; Sugarbeets plant response rating [8, 18]: 0; Sugarbeets plant response rating (0 to 10 scale) [8, 19]: 0; Sugarbeets plant response rating [8, 20]: 0; Sugarbeets plant response rating [8, 21]: 3; Sugarbeets plant response rating [8, 22]: 0; Plant response rating, Sugarbeets [8, 23]: 0; Sugarbeets plant response rating [8, 24]: 0; Velvetleaf plant response rating [9, 17]: 0; Velvetleaf plant response rating [9, 18]: 0; Velvetleaf plant response rating (0 to 10 scale) [9, 19]: 0; Velvetleaf plant response rating [9, 20]: 0; Velvetleaf plant response rating [9, 21]: 5; Velvetleaf plant response rating [9, 22]: 0; Plant response rating, Velvetleaf [9, 23]: 0; Velvetleaf plant response rating [9, 24]: 2; Wheat plant response rating [10, 17]: 0; Wheat plant response rating [10, 18]: 0; Wheat plant response rating (0 to 10 scale) [10, 19]: 0; Wheat plant response rating [10, 20]: 0; Wheat plant response rating [10, 21]: 0; Wheat plant response rating [10, 22]: 0; Plant response rating, Wheat [10, 23]: 0; Wheat plant response rating [10, 24]: 0; Wild oats plant response rating [11, 17]: 0; Wild oats plant response rating [11, 18]: 0; Wild oats plant response rating (0 to 10 scale) [11, 19]: 0; Wild oats plant response rating [11, 20]: 0; Wild oats plant response rating [11, 21]: 3; Wild oats plant response rating [11, 22]: 0; Plant response rating, Wild oats [11, 23]: 0; Wild oats plant response rating [11, 24]: 2; Nutsedge plant response rating [12, 17]: 0; Nutsedge plant response rating [12, 18]: 0; Nutsedge plant response rating (0 to 10 scale) [12, 19]: 0; Nutsedge plant response rating [12, 20]: 0; Nutsedge plant response rating [12, 21]: 0; Nutsedge plant response rating [12, 22]: 0; Plant response rating, Nutsedge [12, 23]: 0; Nutsedge plant response rating [12, 24]: 0; Rice plant response rating [13, 25]: 0; Rice plant response rating [13, 26]: 0; Plant response rating, Rice [13, 27]: 0; Rice plant response rating [13, 28]: 0; S. Flatsedge plant response rating [14, 25]: 0; S. Flatsedge plant response rating [14, 26]: 0; Plant response rating, S. Flatsedge [14, 27]: 5; S. Flatsedge plant response rating [14, 28]: 8; Ducksalad plant response rating [15, 25]: 0; Ducksalad plant response rating [15, 26]: 0; Plant response rating, Ducksalad [15, 27]: 0; Ducksalad plant response rating [15, 28]: 2; Barnyardgrass plant response rating [16, 25]: 6; Barnyardgrass plant response rating [16, 26]: 0; Plant response rating, Barnyardgrass [16, 27]: 7; Barnyardgrass plant response rating ([16]; Rate 500 g/ha, listed under Postemergence (flood test species), scale 0 to 10, 0 no effect, 10 complete control): 9
